The values below come from US20180207114A1, “ESTROGEN RELATED RECEPTOR GAMMA (ERRgamma) ENHANCES AND MAINTAINS BROWN FAT THERMOGENIC CAPACITY” (Salk Institute for Biological Studies, priority 2015, published 2018).

Assay [1] has as its system control flox/flox (WT) and ERRγ ASKO (KO) mice. In words: Oxygen consumption (VO2, CLAMS) after intraperitoneal injection of beta adrenergic agonist in mice. The class given is in vivo, mouse. On the procedure: ERRγ flox/flox mice were crossed with adiponectin-Cre mice (Jackson Laboratory) to generate ERRγ-ASKO mice. ERRγ-ASKO mice and flox/flox control littermates received a standard chow diet (MI laboratory rodent diet 5001, Harlan Teklad) or high fat (60%) diet (F3282, Bio-Serv) and water ad libitum. All mice used for studies were male unless otherwise noted. Mice were housed at thermoneutrality (30° C.) unless otherwise indicated. PPARα null mice were purchased from Jackson laboratory.
Oxygen consumption (VO2) was measured using the Comprehensive Laboratory Animal Monitoring System (CLAMS; Columbus, Ohio). Data were normalized to body weights. Body temperatures were assessed using a RET-3 rectal probe for mice (Physitemp). CL316243 (Sigma) and norepinephrine were intraperitoneally injected into mice at 1 mg/kg body weight.

Assay [2] has as its target T1, ERRγ (Homo sapiens, UniProt P62508).
T1 sequence (P62508 1-458): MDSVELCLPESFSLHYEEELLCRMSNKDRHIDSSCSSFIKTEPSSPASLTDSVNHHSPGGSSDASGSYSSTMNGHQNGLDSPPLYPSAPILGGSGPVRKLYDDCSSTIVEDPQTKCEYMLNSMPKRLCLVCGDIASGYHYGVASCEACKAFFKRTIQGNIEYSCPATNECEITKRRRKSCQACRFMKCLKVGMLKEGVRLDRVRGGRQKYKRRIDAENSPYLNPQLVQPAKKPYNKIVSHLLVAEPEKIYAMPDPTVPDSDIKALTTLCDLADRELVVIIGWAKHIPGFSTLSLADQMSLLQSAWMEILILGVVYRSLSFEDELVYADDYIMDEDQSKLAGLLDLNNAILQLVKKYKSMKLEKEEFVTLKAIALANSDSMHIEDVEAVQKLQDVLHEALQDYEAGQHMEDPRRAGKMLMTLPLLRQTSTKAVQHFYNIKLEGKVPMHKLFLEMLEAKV
The following applies: for example in the presence of PGC-1a; cited from earlier work.

For a further assay, the target named is T2, ERRα (Homo sapiens, UniProt P11474).
T2 sequence (P11474 1-423): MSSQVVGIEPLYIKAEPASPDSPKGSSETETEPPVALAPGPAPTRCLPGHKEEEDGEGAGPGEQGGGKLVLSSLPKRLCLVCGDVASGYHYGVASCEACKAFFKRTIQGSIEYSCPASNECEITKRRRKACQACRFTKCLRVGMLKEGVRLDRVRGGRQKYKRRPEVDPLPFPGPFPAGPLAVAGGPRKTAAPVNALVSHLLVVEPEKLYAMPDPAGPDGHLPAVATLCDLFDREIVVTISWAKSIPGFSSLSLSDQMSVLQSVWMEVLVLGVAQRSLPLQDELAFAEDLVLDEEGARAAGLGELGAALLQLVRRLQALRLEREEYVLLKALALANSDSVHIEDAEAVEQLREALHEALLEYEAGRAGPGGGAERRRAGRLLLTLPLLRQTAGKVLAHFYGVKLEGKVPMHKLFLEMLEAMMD
The following applies: for example in the presence of PGC-1a; cited from earlier work.

In another assay the target is T3, ERRβ (Homo sapiens, UniProt O95718).
T3 sequence (O95718 1-433): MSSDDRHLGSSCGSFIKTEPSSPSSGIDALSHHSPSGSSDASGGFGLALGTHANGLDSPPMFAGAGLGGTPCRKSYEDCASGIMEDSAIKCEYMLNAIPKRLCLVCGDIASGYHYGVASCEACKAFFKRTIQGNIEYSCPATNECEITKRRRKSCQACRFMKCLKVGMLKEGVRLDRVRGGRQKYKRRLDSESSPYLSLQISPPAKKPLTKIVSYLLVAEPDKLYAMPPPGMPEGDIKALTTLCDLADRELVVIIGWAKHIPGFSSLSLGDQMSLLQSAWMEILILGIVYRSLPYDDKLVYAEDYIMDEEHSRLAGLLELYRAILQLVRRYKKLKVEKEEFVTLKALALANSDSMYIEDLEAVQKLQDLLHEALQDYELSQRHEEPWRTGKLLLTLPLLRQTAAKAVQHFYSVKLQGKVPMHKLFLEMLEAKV
The following applies: for example in the presence of PGC-1a; cited from earlier work.

Assay [3] deals with T1, ERRγ. The following applies: cited from earlier work.
Assay [4] relates to differentiated PAZ-6 brown adipocytes. In words: Seahorse XF oxygen consumption assay in differentiated PAZ-6 brown adipocytes. The class given is cell-based, human. As for the experimental part: PAZ-6 human brown adipocytes were differentiated as previously described (18). Human adipose derived stem cells were cultured as previously described.
Bioenergetic profiles were analyzed using a XF24XF analyzer (Seahorse Bioscience) and the XF Palmitate-BSA FAO Substrate (Seahorse Bioscience).

Take `C[C@H](Cc1ccc2c(c1)OC(C(=O)[O-])(C(=O)[O-])O2)NC[C@H](O)c1cccc(Cl)c1.[Na+].[Na+]` [CL316243]: the “response (VO2, RER) to injection” value in assay [1] (ERRγ-ASKO female mice at thermoneutrality, 1 mg/kg BW intraperitoneal) is listed as “blunted”.

Take `Cc1cccc(C=NNC(=O)c2ccc(O)cc2)c1` [DY159]: the “activation of ERRγ” value on ERRγ [2] is “activate”. In addition, the “activation of ERRα” value on ERRα was “activate”. Also, the “activation of ERRβ” value on ERRβ is on record as “activate”.

Turning to `O=C(NN=Cc1ccccc1)c1ccc(O)cc1` [DY162], at ERRγ [2], the “activation of ERRγ” value was “activate”. Moreover, the “activation of ERRα” value on ERRα was “activate”. Also, the “activation of ERRβ” value at ERRβ is “activate”.

With `Cc1ccc(/C=N/NC(=O)c2ccc(O)cc2)cc1` [DY163], at ERRγ [2], the “activation of ERRγ” value is listed as “activate”. The “activation of ERRα” value on ERRα is given as “activate”. Besides, the “activation of ERRβ” value on ERRβ is given as “activate”.

Regarding `CCc1ccc(C=NNC(=O)c2ccc(O)cc2)s1` [DY164], the “activation of ERRγ” value on ERRγ [2] is on record as “activate”. Besides, the “activation of ERRα” value on ERRα is given as “activate”. Besides, the “activation of ERRβ” value on ERRβ is recorded as “activate”.

Consider `Nc1ccc(C(=O)N/N=C/c2ccc(/N=N/c3ccccc3)cc2)cn1` [E6], for which, on ERRγ [3], the “selectivity for ERRγ over ERRα and β” value is “selective for ERRγ but not ERRα and β”.

As to `CC(C)c1ccc(/C=N/NC(=O)c2ccc(O)cc2)cc1` [GSK4716], the “Increase in oxygen consumption rate in the presence or absence of palmitate” value in assay [4] (differentiated PAZ-6, 10 μM overnight, with vs without palmitate (FIG. 5M)) is recorded as “only occurred in the presence of fatty acids”. Also, in assay [4] (differentiated PAZ-6 treated overnight with 10 μM vs DMSO vehicle), the “proton leak or uncoupling” value is given as “higher”. Further, the Oxygen consumption rate entry in assay [4] (differentiated PAZ-6 treated overnight with 10 μM vs DMSO vehicle, in the presence of fatty acids (palmitate)) is on record as “higher”.

With `NC[C@H](O)c1ccc(O)c(O)c1` [NE, norepinephrine], the “metabolic rate (VO2) response upon injection” value in assay [1] (ERRγ-ASKO mice at thermoneutrality, 1 mg/kg intraperitoneal) is on record as “severely blunted”. Further, the “metabolic rate (oxygen consumption, VO2) upon injection” value in assay [1] (control flox/flox mice at thermoneutrality, 1 mg/kg intraperitoneal) was “increased”.
